Key:
infection of leaves = type: in vivo; conditions: lettuce every 10 days, foliar; chemical compound 25 grams, extract 5 grams
[1] = system: infected leaves and fruits; type: in vivo; conditions: strawberry every 10 days, foliar; chemical compound 25 grams, extract 5 grams
leaf infection = type: in vivo, tomato; conditions: tomatoes every week, foliar; chemical compound 25 grams, extract 5 grams
mildew = assay: Specific microorganism extracts and chemical compounds, grape mildew (Table II); type: in vivo, grapes
sigatoka = assay: Specific microorganism extracts and chemical compounds, banana sigatoka (Table II); type: in vivo
infection of fruits = type: in vivo; conditions: blueberry every 15 days, foliar; chemical compound 25 grams, extract 5 grams
fire blight [2] = assay: Specific microorganism extracts and chemical compounds, apple fire blight burn (Table II); type: in vivo, apples
early & late blight = type: in vivo; conditions: potatoes 4 times during season, foliar; chemical compound 25 grams, extract 5 grams
Foliar Infections = type: in vivo; conditions: strawberry plant, chemical compound 1.5 kg per acre, extract 5 grams per acre, once a week
nematode = assay: Resistance induction in strawberry plant, root infection (Table I A); conditions: in vivo
Fire Blight [3] = assay: Resistance induction in apple trees against fire blight (Table I B); conditions: in vivo
foliar infection = type: in vivo; conditions: tomato plants, chemical compound 1.5 kg per acre, extract 5 grams per acre, every 10 days
phytopthora [4] = type: in vivo; conditions: tomato plants, chemical compound 1.5 kg per acre, extract 5 grams per acre, every 10 days
nematodes [5] = assay: Resistance induction in tomato plants, nematodes (Table I C); conditions: in vivo
Black Sigatoka [6] = assay: Resistance induction in bananas against Black Sigatoka (Table I D); design: species or system banana; conditions: in vivo
Nematodes [7] = assay: Resistance induction in bananas against nematodes (Table I D); design: species or system banana; conditions: in vivo
[8] = Growth effect, citrus (Table III); type: in vivo; conditions: foliar, 4 times in 1 year, chemical compound 3 kg, extract 5 grams
Protocol: (§1) These chemical compounds were tested at rates 0.25 to 3 kg per acre of citrus, strawberries, tomatoes and bananas by themselves to measure (A) fertilizer effect on foliar uptake, (B) growth effect, (C) resistance induction effect. These compounds were then combined with extracts of pseudomonas, subtilis species and actinomyces and applied to the similar set of plants and measured for A, B, and C as above. These extracts were also applied to a similar set of plants and measured for A, B, and C as above.

die back = assay: Induction of resistance, citrus die back (Table III); type: in vivo; conditions: foliar, 4 times in 1 year, chemical compound 3 kg, extract 5 grams
Protocol: as §1

phytopthora [9] = assay: Induction of resistance, citrus phytopthora in roots (Table III); type: in vivo; conditions: foliar, 4 times in 1 year, chemical compound 3 kg, extract 5 grams
Protocol: as §1

[10] = Growth effect, strawberry (Table III); type: in vivo; conditions: every 10 days, chemical compound 3 kg, extract 5 grams
Protocol: as §1

leaf disease = assay: Induction of resistance, strawberry leaf disease (Table III); type: in vivo; conditions: every 10 days, chemical compound 3 kg, extract 5 grams
Protocol: as §1

[11] = Growth effect, tomatoes (Table III); type: in vivo; conditions: every 10 days, foliar, chemical compound 3 kg, extract 5 grams
Protocol: as §1

leaf disease, botrylis = assay: Induction of resistance, tomato leaf infection (Table III); type: in vivo; conditions: tomatoes, every 10 days, foliar; chemical compound 3 kg, extract 5 grams
Protocol: as §1

phytopthora [12] = assay: Induction of resistance, tomato phytopthora in roots (Table III); type: in vivo; conditions: tomatoes, every 10 days, foliar; chemical compound 3 kg, extract 5 grams
Protocol: as §1

[13] = Growth effect, bananas (Table III); type: in vivo; conditions: every week, foliar, for 6 months, chemical compound 3 kg, extract 5 grams
Protocol: as §1

Black Sigatoka [14] = assay: Induction of resistance, banana Sigatoka (Table III); type: in vivo; conditions: bananas, every week, foliar, for 6 months; chemical compound 3 kg, extract 5 grams
Protocol: as §1

[15] = bananas every week for 6 months, foliar, chemical compound 25 grams alone

Compound	infection of leaves (infection of leaves) [% infection]	infected leaves [1] [% infection]	infected leaves / leaf infection (leaf infection) [% infection]	infection of fruits (infection of fruits)	infected leaves (early & late blight) (early & late blight) [% leaf infection]	Results in Foliar Infections (Foliar Infections) [% infection]	Results in Root Infection (nematode infection) (nematode) [% nematode infection]	Results On Development of Fire Blight (Fire Blight [3]) [% fire blight]	Results In Foliar & Root Infections: foliar infection (foliar infection)	Results In Foliar & Root Infections: phytopthora (phytopthora [4])	Results In Foliar & Root Infections: nematode (nematodes [5])	Results On Black Sigatoka: Leaves at Flowering (Black Sigatoka [6])	Results On Nematode Infection (Nematodes [7])	other results
O=C([O-])CC(O)(CC(=O)[O-])C(=O)[O-].O=C([O-])CC(O)(CC(=O)[O-])C(=O)[O-].[Ca+2].[Ca+2].[Ca+2] [calcium citrate]	90	80	85	30% infection of fruits	25									mildew (mildew; in vivo): 55% mildew; infection (sigatoka, leaves) (sigatoka; in vivo): 85% infection-all leaves except youngest 3; infection-all leaves except youngest (number of youngest leaves) (sigatoka; in vivo): 85% infection-all leaves except youngest 3; fire blight burn (leaves) (fire blight [2]; in vivo): 20% fire blight burn
O=[N+]([O-])[O-].O=[N+]([O-])[O-].[Ca+2] [calcium nitrate]						20	20	20	15% foliar infection, 15% phytopthora, 20% nematrode	15% foliar infection, 15% phytopthora, 20% nematrode	15% foliar infection, 15% phytopthora, 20% nematrode	7 Leaves at Flowering, High Nematode infection	7 Leaves at Flowering, High Nematode infection	
potassium phosphite	85	85	100	35% infection of fruits	35									mildew (mildew; grapes every 15 days, foliar, chemical compound 25 grams, extract 5 grams): 70% mildew; infection (sigatoka, leaves) (sigatoka; [15]): 90%; infection-all leaves except youngest (number of youngest leaves) (sigatoka; [15]): 4; fire blight burn (leaves) (fire blight [2]; apples (2 yr old) 10 days post bud break & 1 week later, foliar, chemical compound 25 grams, extract 5 grams): 25% fire blight burn; Growth effect [8]: zero improvement; Induction of Resistance: die back (die back): die back as usual; Induction of Resistance: phytopthora in roots (phytopthora [9]): zero resistance to phytopthora,; Growth effect [10]: no increase; Induction of Resistance: leaf disease, infection (leaf disease): suppression, 25% infection; Growth effect [11]: no increase; Induction of Resistance: leaf infection (leaf disease, botrylis): 35% leaf infection; Induction of Resistance: phytopthora in roots (phytopthora [12]): phytopthora zero control,; Growth effect [13]: no increase; Induction of Resistance: Sigatoka control, leaves with no symptoms (Black Sigatoka [14]): only 4 youngest leaves
O=P(O)(O)O [potassium phosphate]						20	20	18	15% foliar infection, 15% phytopthora, 20% nematrode	15% foliar infection, 15% phytopthora, 20% nematrode	15% foliar infection, 15% phytopthora, 20% nematrode	7 Leaves at Flowering, High Nematode infection	7 Leaves at Flowering, High Nematode infection	

— patent US20070142227A1, “Systemic inducer composition for plants” (priority 2003, published 2007)
